# In patent publication US10294202B2, “Pyrrolidinones as herbicides” (FMC Corporation, priority 2013, dated 2019):
# Legend:
# sedge, umbrella = assay: Test B flooded paddy test; assay type: in vivo, Cyperus difformis; details: 500 g ai/ha, Flood; scale of 0 to 100 where 0 is no effect and 100 is complete control
# How it was run: (§1)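 Scoring: visual, compared with untreated controls, 0 = no effect through 100 = complete control, taken 13 to 15 days after treatment in the greenhouse. Compounds had been added to paddy water over soil flooded 3 cm deep at the plants' 2-leaf stage.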
# rice = assay: Test B flooded paddy test; assay type: in vivo, Oryza sativa; details: 500 g ai/ha, Flood; scale of 0 to 100 where 0 is no effect and 100 is complete control
# How it was run: as §1
# kochia = assay: Test A pre-/postemergence herbicide test; assay type: in vivo, Kochia scoparia
# How it was run: (§2)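 Visual 0–100 ratings (100 = complete control) made about 10 days after treatment, greenhouse-held plants compared with untreated controls. Treatments: postemergence sprays on one- to two-leaf plants (2–10 cm tall) and preemergence directed soil sprays after planting in loam–sand, chemicals formulated in non-phytotoxic solvent containing surfactant.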
# ragweed = assay: Test A pre-/postemergence herbicide test; assay type: in vivo, Ambrosia elatior
# How it was run: as §2
# ducksalad = assay: Test B flooded paddy test; assay type: in vivo, Heteranthera limosa; details: 500 g ai/ha, Flood; scale of 0 to 100 where 0 is no effect and 100 is complete control
# How it was run: as §1
# pigweed = assay: Test A pre-/postemergence herbicide test; assay type: in vivo, Amaranthus retroflexus
# How it was run: as §2
# blackgrass = assay: Test A postemergence herbicide test; assay type: in vivo, Alopecurus myosuroides
# How it was run: (§3)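 Young potted plants in a loam–sand mix, one- to two-leaf stage and 2–10 cm tall, receive the test chemical postemergence and stay in a greenhouse for approximately 10 days. Injury is then judged by eye against untreated plants, scored 0 (none) to 100 (complete control).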
# ryegrass, Italian = assay: Test A pre-/postemergence herbicide test; assay type: in vivo, Lolium multiflorum
# How it was run: as §2
# barnyardgrass [1] = assay: Test B flooded paddy test; assay type: in vivo, Echinochloa crus-galli; details: 500 g ai/ha, Flood; scale of 0 to 100 where 0 is no effect and 100 is complete control
# How it was run: as §1
# corn = assay: Test A pre-/postemergence herbicide test; assay type: in vivo, Zea mays; details: Postemergence
# How it was run: as §2
# wheat = assay: Test A pre-/postemergence herbicide test; assay type: in vivo, Triticum aestivum; details: Postemergence
# How it was run: as §2
# giant foxtail = assay: Test A pre-/postemergence herbicide test; assay type: in vivo, Setaria faberii
# How it was run: as §2
# galium = assay: Test A postemergence herbicide test; assay type: in vivo, Galium aparine
# How it was run: as §3
# barnyardgrass [2] = assay: Test A pre-/postemergence herbicide test; assay type: in vivo, Echinochloa crus-galli
# How it was run: as §2
# [3] = 125 g ai/ha, visual rating, 0 to 100 scale, 0 no effect, 100 complete control, approximately 10 days, preemergence
# [4] = Postemergence, 125 g ai/ha, 0 to 100 scale, 0 is no effect, 100 is complete control
# [5] = preemergence, 500 g ai/ha, 0 to 100 scale, 0 is no effect and 100 is complete control
# [6] = 125 g ai/ha, 0 to 100 scale, 0 is no effect, 100 is complete control
# [7] = Postemergence, 500 g ai/ha, 0 to 100 scale (0 no effect, 100 complete control)
# [8] = Preemergence, 125 g ai/ha, 0 to 100 scale where 0 is no effect and 100 is complete control
# [9] = Postemergence, 125 g ai/ha, visual rating on 0 to 100 scale (0 no effect, 100 complete control), approx. 10 days
# [10] = 500 g ai/ha, 0 to 100 scale (0 no effect, 100 complete control)
smiles,measurement,setting,value
Cc1ccc(C2CNC(=O)C2C(=O)Nc2cccc(F)c2)cc1 (racemic) [Compound 153],"Plant response rating, Sedge, Umbrella","sedge, umbrella",0
same,"Plant response rating, Rice",rice,10
same,"Plant response rating, Kochia",kochia; [3],60
same,"Plant response rating, Kochia",kochia; [4],60
same,"Kochia plant response rating (0 to 100 scale, 0 is no effect, 100 is complete control)","kochia; Postemergence, 500 g ai/ha",60
same,"Plant response rating, Kochia",kochia; [5],80
same,"Plant response rating, Ragweed",ragweed; [3],0
same,"Plant response rating, Ragweed",ragweed; [4],0
same,"Ragweed plant response rating (0 to 100 scale, 0 is no effect, 100 is complete control)","ragweed; Postemergence, 500 g ai/ha",10
same,"Plant response rating, Ragweed",ragweed; [5],80
same,"Plant response rating, Ducksalad",ducksalad,100
same,"Plant response rating, Pigweed",pigweed; [3],0
same,"Plant response rating, Pigweed",pigweed; [4],40
same,"Pigweed plant response rating (0 to 100 scale, 0 is no effect, 100 is complete control)","pigweed; Postemergence, 500 g ai/ha",50
same,"Plant response rating, Pigweed",pigweed; [5],0
same,"Plant response rating, Blackgrass",blackgrass; [6],40
same,"Blackgrass plant response rating (0 to 100 scale, 0 is no effect, 100 is complete control)",blackgrass; 500 g ai/ha,30
same,"Plant response rating, Ryegrass, Italian","ryegrass, Italian; [3]",0
same,"Plant response rating, Ryegrass, Italian","ryegrass, Italian; [4]",0
same,"Ryegrass, Italian plant response rating (0 to 100 scale, 0 is no effect, 100 is complete control)","ryegrass, Italian; Postemergence, 500 g ai/ha",0
same,"Plant response rating, Ryegrass, Italian","ryegrass, Italian; [5]",0
same,"Plant response rating, Barnyardgrass",barnyardgrass [1],60
same,"Plant response rating, Corn",corn; [6],0
same,"Corn plant response rating (0 to 100 scale, 0 is no effect, 100 is complete control)",corn; 500 g ai/ha,0
same,"Plant response rating, Wheat",wheat; [6],0
same,"Wheat plant response rating (0 to 100 scale, 0 is no effect, 100 is complete control)",wheat; 500 g ai/ha,0
same,"Plant response rating, Foxtail, Giant",giant foxtail; [3],60
same,"Plant response rating, Foxtail, Giant",giant foxtail; [4],50
same,"Foxtail, Giant plant response rating (0 to 100 scale, 0 is no effect, 100 is complete control)","giant foxtail; Postemergence, 500 g ai/ha",60
same,"Plant response rating, Foxtail, Giant","giant foxtail; preemergence, 500 g ai/ha, 0 to 100 scale",80
same,"Plant response rating, Galium",galium; [6],0
same,"Galium plant response rating (0 to 100 scale, 0 is no effect, 100 is complete control)",galium; 500 g ai/ha,60
same,"Plant response rating, Barnyardgrass",barnyardgrass [2]; [3],80
same,"Plant response rating, Barnyardgrass",barnyardgrass [2]; [4],60
same,"Barnyardgrass plant response rating (0 to 100 scale, 0 is no effect, 100 is complete control)","barnyardgrass [2]; Postemergence, 500 g ai/ha",80
same,"Plant response rating, Barnyardgrass","barnyardgrass [2]; preemergence, 500 g ai/ha, 0 to 100 scale (0 no effect, 100 complete control)",90
O=C1NCC(c2cc3ccccc3o2)C1C(=O)Nc1ccccc1C(F)(F)F (stereo not drawn) [Compound 283],"Plant response rating, Sedge, Umbrella","sedge, umbrella",0
same,"Plant response rating, Rice",rice,0
same,"Plant response rating, Kochia",kochia; [4],0
same,"Plant response rating, Kochia",kochia; [7],0
same,"Plant response rating, Kochia",kochia; [8],0
same,"Plant response rating, Kochia",kochia; [5],0
same,"Plant response rating, Ragweed",ragweed; [9],0
same,"Plant response rating, Ragweed",ragweed; [7],0
same,"Plant response rating, Ragweed",ragweed; [8],0
same,"Plant response rating, Ragweed",ragweed; [5],0
same,"Plant response rating, Ducksalad",ducksalad,85
same,"Plant response rating, Pigweed",pigweed; [9],0
same,"Plant response rating, Pigweed",pigweed; [7],0
same,"Plant response rating, Pigweed",pigweed; [8],0
same,"Plant response rating, Pigweed",pigweed; [5],0
same,"Plant response rating, Blackgrass",blackgrass; [6],0
same,"Plant response rating, Blackgrass",blackgrass; [10],0
same,"Plant response rating, Ryegrass, Italian","ryegrass, Italian; [9]",0
same,"Plant response rating, Ryegrass, Italian","ryegrass, Italian; [7]",0
same,"Plant response rating, Ryegrass, Italian","ryegrass, Italian; [8]",0
same,"Ryegrass, Italian plant response rating","ryegrass, Italian; Preemergence, 500 g ai/ha, visual rating on 0 to 100 scale (0 no effect, 100 complete control)",0
same,"Plant response rating, Barnyardgrass",barnyardgrass [1],20
same,"Plant response rating, Corn",corn; [6],0
same,"Plant response rating, Corn",corn; [10],0
same,"Plant response rating, Wheat","wheat; 125 g ai/ha, visual rating on 0 to 100 scale (0 no effect, 100 complete control), approx. 10 days",0
same,"Plant response rating, Wheat",wheat; [10],0
same,"Plant response rating, Foxtail, Giant",giant foxtail; [4],0
same,"Plant response rating, Foxtail, Giant",giant foxtail; [7],10
same,"Plant response rating, Foxtail, Giant",giant foxtail; [8],0
same,"Plant response rating, Foxtail, Giant",giant foxtail; [5],0
same,"Plant response rating, Galium",galium; [6],0
same,"Plant response rating, Galium",galium; [10],0
same,"Plant response rating, Barnyardgrass",barnyardgrass [2]; [4],0
same,"Plant response rating, Barnyardgrass",barnyardgrass [2]; [7],60
same,"Plant response rating, Barnyardgrass",barnyardgrass [2]; [8],0
same,"Plant response rating, Barnyardgrass",barnyardgrass [2]; [5],0
